# From article PMC12304293, “Combatting virulent gut bacteria by inhibiting the biosynthesis of a two-component lanthipeptide toxin” (Nature Communications, 2025)
# “And” between values parts separate entries of the source, which are not always exact repeats. Identical values can stand only once. Like-named read-outs stand apart in the source and are kept apart here. Non-standard residues stand in square brackets, D forms with d. Residues, ends and D or L forms follow the SMILES beside them. *: point of attachment. boroGlu = O=C(O)CC[C@H](N*)B(O)O; Gly(cPr) = N[C@H](C(=O)O)C1CC1
# Columns and labels:
# [1] = assay type: in vitro ADME, Enterococcus faecalis; settings: 100 µM, 37 °C, 20 h
# Procedure: To investigate the stability of 9 in the presence of E. faecalis, cell extracts treated with 9 were tested for inhibitory activity. […] Cultures that were treated with 100 µM of 9 at 37 °C for 20 h gave extracts that inhibited the activity of CylA in vitro. The inhibitory activity of these extracts was about 3-fold less than a sample of fresh 9.
# Similiarly, 9 was diluted to 100 µM in BHI that was inoculated with E. faecalis ATCC 29212 before incubating at 37 °C for 20 h. The overnight culture was flash frozen and lyophilized. The lyophilized samples were extracted with a volume of 90% methanol/10% water that was equal to the volume of the sample prior to lyophilization. The extract was assumed to have a concentration of 100 µM. […]
# Human Serum + 9 Human Serum
# Log(Concentration (µM)) Log(Concentration(µM))
# Supplementary Figure 19. The stability of inhibitor 9 in the pres ence of human serum or C+ E. faecalis. A ) C y l A i nhibition activity of an extract of human s erum treated with 9 (100 μM) for 3 h at 37 ̊C. The resulting solution was used to determine the remaining activity of the inhibitor in a […]
# CylA activity assay. […] This experiment was perform ed on three different samples of inhibitor (n = 3). […]
# (also on this page, place not known: determined. inhibition CylA These IC 50 presence serum This performed A) Non-linear fitting v i/vo IC 50. […]
# [2] = test system: E. faecalis FA2-2 (pAM714), E. faecalis ATCC 29212; assay type: cell-based, Enterococcus faecalis; settings: for growth curve reading, ATCC 29212 +9: E. faecalis ATCC 29212 with 9; for growth curve reading, ATCC 29212 +9 / growth curve reading, pAM714 +9: trials 1-3; for growth curve reading, pAM714 +9: E. faecalis pAM714 with 9
# Procedure: To a 96-well plate, BHI media was added containing 200 µM of inhibitor 9. An overnight culture of E. faecalis was diluted to a concentration of 10^6 CFU/mL and an equal volume of this culture was added to the well containing inhibitor. A growth control was prepared by combining the diluted bacterial cells with an equal volume of sterile BHI. A sterility control well was filled with sterile BHI to the same volume. The 96-well plate was transferred to a plate reader preheated to 37 °C and the plate was shaken continuously. The OD600 of each well was measured over the course of 24 h. Uncorrected OD600 values were plotted as a function of time. […]
# or B) E. faecalis ATCC 29212. Wells containing B HI media were inocul ated with 1 x 106 C F U / m L of E. faecalis .I nhibitor 9 was added to achieve a well concentration of 100 µM. A growth control well not containing 9 an d a sterile control not co ntaining bacteria were s et up on the same plate.
# The plate was incubated with shaking at 37 ̊C and the OD600 was measured every 30 min for 18h.
# This experiment was conducted on three biological samples (n = 3). Error bars represent the standard of devi ation and are c enter ed at the me an. Source data are p rovided as a Source Data file. […]
structure (smiles),measurement,setting,value
CC(=O)NCC(=O)N[C@@H](CC(=O)O)C(=O)N[C@H](C(=O)N[C@@H](CCC(N)=O)C(=O)N[C@@H](C)C(=O)N[C@@H](CCC(=O)O)B(O)O)C1CC1 [Compound 9] (Ac-GD[Gly(cPr)]QA-boroGlu),inhibitory activity of culture extracts less than a sample of fresh 9,[1],about 3 fold
same,stability in cultures of E. faecalis,[1],relatively good stability
same,growth of C+ E. faecalis,"[2]; 100 µM, FA2-2 (pAM714) or ATCC 29212",did not impact the growth
same,"growth curve reading, ATCC 29212 +9",[2]; time 0 h,0.1154 and 0.116 and 0.0922
same,"growth curve reading, ATCC 29212 +9",[2]; time 0.5 h,0.0985 and 0.1041 and 0.0924
same,"growth curve reading, ATCC 29212 +9",[2]; time 1 h,0.1003 and 0.1065 and 0.0941
same,"growth curve reading, ATCC 29212 +9",[2]; time 4 h,0.3147 and 0.3334 and 0.308
same,"growth curve reading, ATCC 29212 +9",[2]; time 4.5 h,0.4828 and 0.507 and 0.4713
same,"growth curve reading, ATCC 29212 +9",[2]; time 5 h,0.7061 and 0.7328 and 0.6866
same,"growth curve reading, ATCC 29212 +9",[2]; time 6 h,0.8111 and 0.8333 and 0.7942
same,"growth curve reading, ATCC 29212 +9",[2]; time 6.5 h,0.8209 and 0.8395 and 0.8063
same,"growth curve reading, ATCC 29212 +9",[2]; time 7 h,0.8266 and 0.8438 and 0.8065
same,"growth curve reading, ATCC 29212 +9",[2]; time 8 h,0.8109 and 0.8262 and 0.7852
same,"growth curve reading, ATCC 29212 +9",[2]; time 8.5 h,0.7898 and 0.8142 and 0.7555
same,"growth curve reading, ATCC 29212 +9",[2]; time 9 h,0.756 and 0.7924 and 0.7138
same,"growth curve reading, ATCC 29212 +9",[2]; time 9.5 h,0.7216 and 0.7609 and 0.6743
same,"growth curve reading, ATCC 29212 +9",[2]; time 10 h,0.6983 and 0.7557 and 0.6452
same,"growth curve reading, ATCC 29212 +9",[2]; time 10.5 h,0.6599 and 0.7472 and 0.6197
same,"growth curve reading, ATCC 29212 +9",[2]; time 11 h,0.651 and 0.7261 and 0.5927
same,"growth curve reading, ATCC 29212 +9",[2]; time 12 h,0.5996 and 0.6855 and 0.5551
same,"growth curve reading, ATCC 29212 +9",[2]; time 12.5 h,0.6003 and 0.6798 and 0.5403
same,"growth curve reading, ATCC 29212 +9",[2]; time 13 h,0.594 and 0.6632 and 0.5265
same,"growth curve reading, ATCC 29212 +9",[2]; time 13.5 h,0.5622 and 0.6648 and 0.515
same,"growth curve reading, ATCC 29212 +9",[2]; time 14 h,0.5532 and 0.6505 and 0.5057
same,"growth curve reading, ATCC 29212 +9",[2]; time 14.5 h,0.547 and 0.6403 and 0.4947
same,"growth curve reading, ATCC 29212 +9",[2]; time 15 h,0.5331 and 0.6268 and 0.5432
same,"growth curve reading, ATCC 29212 +9",[2]; time 15.5 h,0.5632 and 0.6227 and 0.5048
same,"growth curve reading, ATCC 29212 +9",[2]; time 16 h,0.5401 and 0.6149 and 0.5008
same,"growth curve reading, ATCC 29212 +9",[2]; time 16.5 h,0.5274 and 0.6109 and 0.5013
same,"growth curve reading, ATCC 29212 +9",[2]; time 17 h,0.5274 and 0.5922 and 0.4935
same,"growth curve reading, ATCC 29212 +9",[2]; time 17.5 h,0.5197 and 0.5739 and 0.5382
same,"growth curve reading, ATCC 29212 +9",[2]; time 18 h,0.5155 and 0.5767 and 0.5324
same,"growth curve reading, pAM714 +9",[2]; time 0 h,0.0946 and 0.0915 and 0.093
same,"growth curve reading, pAM714 +9",[2]; time 0.5 h,0.0971 and 0.0931 and 0.0938
same,"growth curve reading, pAM714 +9",[2]; time 1 h,0.099 and 0.095 and 0.0956
same,"growth curve reading, pAM714 +9",[2]; time 4 h,0.1926 and 0.195 and 0.1996
same,"growth curve reading, pAM714 +9",[2]; time 4.5 h,0.2491 and 0.255 and 0.2626
same,"growth curve reading, pAM714 +9",[2]; time 5 h,0.3385 and 0.3521 and 0.3631
same,"growth curve reading, pAM714 +9",[2]; time 6 h,0.6065 and 0.6337 and 0.65
same,"growth curve reading, pAM714 +9",[2]; time 6.5 h,0.7256 and 0.7465 and 0.7496
same,"growth curve reading, pAM714 +9",[2]; time 7 h,0.7199 and 0.7425 and 0.7485
same,"growth curve reading, pAM714 +9",[2]; time 8 h,0.7208 and 0.7411 and 0.7548
same,"growth curve reading, pAM714 +9",[2]; time 8.5 h,0.7272 and 0.7466 and 0.7599
same,"growth curve reading, pAM714 +9",[2]; time 9 h,0.7255 and 0.7488 and 0.7571
same,"growth curve reading, pAM714 +9",[2]; time 9.5 h,0.7184 and 0.7445 and 0.7497
same,"growth curve reading, pAM714 +9",[2]; time 10 h,0.708 and 0.736 and 0.7402
same,"growth curve reading, pAM714 +9",[2]; time 10.5 h,0.6972 and 0.7258 and 0.7305
same,"growth curve reading, pAM714 +9",[2]; time 11 h,0.6856 and 0.717 and 0.7218
same,"growth curve reading, pAM714 +9",[2]; time 12 h,0.6642 and 0.6996 and 0.7054
same,"growth curve reading, pAM714 +9",[2]; time 12.5 h,0.6586 and 0.6909 and 0.6988
same,"growth curve reading, pAM714 +9",[2]; time 13 h,0.6446 and 0.6836 and 0.6924
same,"growth curve reading, pAM714 +9",[2]; time 13.5 h,0.6425 and 0.6781 and 0.6878
same,"growth curve reading, pAM714 +9",[2]; time 14 h,0.6308 and 0.6721 and 0.6814
same,"growth curve reading, pAM714 +9",[2]; time 14.5 h,0.6266 and 0.6677 and 0.6764
same,"growth curve reading, pAM714 +9",[2]; time 15 h,0.6144 and 0.6613 and 0.6745
same,"growth curve reading, pAM714 +9",[2]; time 15.5 h,0.6099 and 0.6586 and 0.6678
same,"growth curve reading, pAM714 +9",[2]; time 16 h,0.6043 and 0.6548 and 0.6659
same,"growth curve reading, pAM714 +9",[2]; time 16.5 h,0.6012 and 0.6523 and 0.6623
same,"growth curve reading, pAM714 +9",[2]; time 17 h,0.5956 and 0.6495 and 0.6597
same,"growth curve reading, pAM714 +9",[2]; time 17.5 h,0.5906 and 0.6489 and 0.6599
same,"growth curve reading, pAM714 +9",[2]; time 18 h,0.5896 and 0.647 and 0.6581
